Measurements reported in patent publication US20120058997A1, “IMIDAZO[1,2-B]PYRIDAZINE AND PYRAZOLO[1,5-A]PYRIMIDINE DERIVATIVES AND THEIR USE AS PROTEIN KINASE INHIBITORS” (SuperGen, Inc., priority 2006, published 2012).
“And” between values parts separate entries of the source, which are not always exact repeats. Identical values can stand only once. Like-named read-outs stand apart in the source and are kept apart here.

Tests used:
Pim-1 kinase = Pim-1 kinase (Homo sapiens, UniProt P11309); assay: Promega Kinase-Glo Pim-1 kinase inhibition assay; format: biochemical;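 also: in vitro Pim-1 reaction run 2 h at 30 °C, then leftover ATP measured by luciferase luminescence, where signal falls as kinase activity rises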
K562 Cells = assay: Cell growth inhibition, Cell-Titer-Glo, 96 hours; format: cell-based;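 also: luminescent ATP signal as an index of viable cell number, drug-treated versus cells given an equal volume of DMSO vehicle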
PC-3 Cells = assay: Cell growth inhibition, Cell-Titer-Glo, 96 hours; format: cell-based;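 also: luciferase luminescence reflecting cellular ATP, used as a proxy for cell number, with compound-treated cells compared against DMSO vehicle control wells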
[1] = Table VIII (results), values in uM, read-out: IC50(Kinase)
[2] = Table IX (results), read-out: IC50 (K562)
[3] = Homo sapiens, K562, Table IX (results), read-out: IC50 (K562)
[4] = Homo sapiens, Table IX (results), read-out: IC50 (PC-3)
[5] = IC50 (Kinase inhibitory activity), Table V, Pim-1 kinase, Kinase-Glo
[6] = Homo sapiens, K562, read-out: IC50 K562 Cells (inhibit cell growth to 50% of untreated), Table VI
[7] = Homo sapiens, read-out: IC50 PC-3 Cells (inhibit cell growth to 50% of untreated), Table VI
[8] = Table VIII (results), values in nM, read-out: IC50(Kinase)
[9] = Table X, Kinase-Glo, read-out: IC50 on Pim1

Pim-1 kinase, sequence (P11309 whole entry): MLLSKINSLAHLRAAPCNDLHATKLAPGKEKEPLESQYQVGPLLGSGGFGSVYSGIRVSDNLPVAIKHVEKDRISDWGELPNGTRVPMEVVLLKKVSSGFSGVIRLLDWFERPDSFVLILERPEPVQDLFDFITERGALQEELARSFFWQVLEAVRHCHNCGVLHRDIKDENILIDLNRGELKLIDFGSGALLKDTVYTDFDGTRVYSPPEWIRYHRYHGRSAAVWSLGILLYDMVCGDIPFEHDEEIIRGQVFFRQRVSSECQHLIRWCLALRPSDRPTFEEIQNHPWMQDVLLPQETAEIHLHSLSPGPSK

SMILES	IC50 (K562 Cells; [3])	IC50 (PC-3 Cells; [4])	IC50 (Pim-1 kinase; [9])	other results
CN(C)c1cccc(-c2cnc3ccc(NCCCCO)nn23)c1 [Compound 7-4, 12-(3-(3-(dimethylamino)phenyl)imidazo[1,2-b]pyridazin-6-ylamino)butan-1-ol]				IC50 (Pim-1 kinase; [1]): 1.81 µM; IC50 (K562 Cells; [2]): 13.6 µM; IC50 (PC-3 Cells; Table IX (results), read-out: IC50 (PC-3)): 54.6 µM
CCN1CCC(CNc2ccc3ncc(-c4cccc(OC(F)(F)F)c4)n3n2)CC1 [Compound 7-39, N-((1-ethylpiperidin-4-yl)methyl)-3-(3-(trifluoromethoxy)phenyl)imidazo[1,2-b]pyridazin-6-amine]	1.66 µM	5.82 µM		
CCC(CO)Nc1ccc2ncc(-c3ccc(NS(C)(=O)=O)cc3)n2n1 (stereo not shown) [Compound 1-3]				IC50 (Pim-1 kinase; [5]): 5.35 µM; IC50 (K562 Cells; [6]): 80.2 µM; IC50 (PC-3 Cells; [7]): 39 µM
COc1ccc(OC(F)(F)F)cc1-c1cnc2ccc(NCCC3CCN(C)CC3)nn12 [Compound 7-44, 3-(2-methoxy-5-(trifluoromethoxy)phenyl)-N-(2-(1-methylpiperidin-4-yl)ethyl)-imidazo[1,2-b]pyridazin-6-amine]	5.7 µM	17.7 µM		
Fc1cccc(-c2cnc3ccc(NC4CCCC4)nn23)c1 [Compound 7-15, N-cyclopentyl-3-(3-fluorophenyl)imidazo[1,2-b]pyridazin-6-amine]	20.8 µM	70.2 µM		IC50 (Pim-1 kinase; [1]): 5.35 µM
CC[C@@H](N)COc1ccc2ncc(-c3cccc(OC(F)(F)F)c3)n2n1 [Compound 7-18, (R)-1-(3-(3-(trifluoromethoxy)phenyl)imidazo[1,2-b]pyridazin-6-yloxy)butan-2-amine]	5.82 µM			IC50 (Pim-1 kinase; [8]): 0.481 µM
CN1CCC(CCNc2ccc3ncc(-c4cc(OC(F)(F)F)ccc4O)n3n2)CC1 [Compound 7-45, 3-(2-Hydroxyl-5-(trifluoromethoxy)phenyl)-N-(2-(1-methylpiperidin-4-yl)ethyl)-imidazo[1,2-b]pyridazin-6-amine]	14.9 µM	52 µM		
CCN1CCC(CNc2ccc3ncc(-c4cc(OC(F)(F)F)ccc4O)n3n2)CC1 [Compound 7-47, N-((1-ethylpiperidin-4-yl)methyl)-3-(2-hydroxy-5-(trifluoromethoxy)phenyl)-imidazo[1,2-b]pyridazin-6-amine]	11.3 µM	57.4 µM		IC50 (Pim-1 kinase; [8]): 0.31 µM
COc1ccc(OC(F)(F)F)cc1-c1cnc2ccc(NCC3CCN(C)CC3)nn12 [Compound 7-42, 3-(2-methoxy-5-(trifluoromethoxy)phenyl)-N-((1-methylpiperidin-4-yl)methyl)-imidazo[1,2-b]pyridazin-6-amine]	9.6 µM	8.96 µM		
CCN1CCC(CNc2nn3c(-c4cccc(OC(F)(F)F)c4)cnc3cc2C)CC1 [Compound 7-38, N-((1-ethylpiperidin-4-yl)methyl)-7-methyl-3-((trifluoromethoxy)phenyl)imidazo [1,2-b]pyridazin-6-amine]	1.41 µM	5.68 µM		
CN1CCC(CNc2ccc3ncc(-c4cc(OC(F)(F)F)ccc4O)n3n2)CC1 [Compound 7-43, 3-(2-hydroxy-5-(trifluoromethoxy)phenyl)-N-((1-methylpiperidin-4-yl)methyl)-imidazo[1,2-b]pyridazin-6-amine]	4.9 µM			IC50 (Pim-1 kinase; [1]): 1.1 µM
Cc1cc2ncc(-c3cccc(OC(F)(F)F)c3)n2nc1NCC1CCN(C)CC1 [Compound 7-37, 7-Methyl-N-((1-methylpiperidin-4-yl)methyl)-3-(3-(trifluoromethoxy)phenyl)-imidazo[1,2-b]pyridazin-6-amine]	3.89 µM	8.95 µM		IC50 (Pim-1 kinase; [8]): 0.013 µM
CC[C@@H](CO)Nc1ccc2ncc(-c3cccc(OC(F)(F)F)c3)n2n1 [Compound 7-32, (S)-2-(3-(3-(trifluoromethoxy)phenyl)imidazo[1,2-b]pyridazin-6-ylamino)butan-1-ol]	25.3 µM	29 µM		IC50 (Pim-1 kinase; [8]): 0.095 µM; IC50 (Pim-1 kinase; [1]): 1.55 µM; IC50 (K562 Cells; [2]): 20 µM
CN1CCC(COc2ccc3ncc(-c4cccc(OC(F)(F)F)c4)n3n2)CC1 [Compound 7-33, 6-((1-methylpiperidin-4-yl)methoxy)-3-(3-(trifluoromethoxy)phenyl)imidazo[1,2-b]pyridazine]	5.99 µM	14.4 µM		IC50 (Pim-1 kinase; [8]): 0.405 µM and 0.282 µM
CC(C)N1CCC(CNc2ccc3ncc(-c4cccc(OC(F)(F)F)c4)n3n2)CC1 [Compound 7-35, N-((1-isopropylpiperidin-4-yl)methyl)-3-(3(trifluoromethoxy)phenyl)imidazo[1,2b]pyridazin-6-amine]	2.92 µM	12.8 µM		
FC(F)(F)Oc1cccc(-c2ccc3ncc(-c4cccc(OC(F)(F)F)c4)n3n2)c1 [Compound 7-13]	19.1 µM	63.2 µM		
NS(=O)(=O)c1ccc(CNc2ccc3ncc(-c4ccc(CCC(=O)O)cc4)n3n2)cc1 [Compound 1-1]				IC50 (Pim-1 kinase; [5]): 4.47 µM; IC50 (K562 Cells; [6]): > 300 µM; IC50 (PC-3 Cells; [7]): > 300 µM
Cc1ccc(S(=O)(=O)Nc2ccc(Nc3ccn4ncc(-c5cccc(N(C)C)c5)c4n3)cc2)cc1 [Compound 3-13]				IC50 (Pim-1 kinase; [5]): 52.1 µM; IC50 (K562 Cells; [6]): 29.3 µM; IC50 (PC-3 Cells; [7]): 12.8 µM
FC(F)(F)Oc1cccc(-c2cnc3ccc(NCCN4CCCC4)nn23)c1 [Compound 7-30, N-(2-(pyrrolidin-1-yl)ethyl)-3-(3-(trifluoromethoxy)phenyl)imidazol[1,2-b]pyridazin-6-amine]	9.14 µM	9.26 µM		IC50 (Pim-1 kinase; [8]): 0.761 µM
Fc1cccc(-c2ccc3ncc(-c4cccc(F)c4)n3n2)c1 [Compound 7-9]	6.76 µM	21.2 µM		IC50 (Pim-1 kinase; [1]): 86.6 µM
CCC(CO)Nc1ccc2ncc(-c3ccc(N(C)C)cc3)n2n1 (stereo not shown) [Compound 7-1]	67.1 µM	29.2 µM		IC50 (Pim-1 kinase; [5]): 3.99 µM; IC50 (Pim-1 kinase; [1]): 3.99 µM; IC50 (K562 Cells; [6]): 67.1 µM; IC50 (PC-3 Cells; [7]): 29.2 µM
Fc1ccc(-c2ccc3ncc(-c4ccc(F)cc4)n3n2)cc1 [Compound 7-7]	271 µM	87.2 µM		IC50 (Pim-1 kinase; [1]): 9.76 µM
CCN1CCC(CNc2ccc3ncc(-c4cc(OC(F)(F)F)ccc4OC)n3n2)CC1 [Compound 7-46, N-((1-ethylpiperidin-4-yl)methyl)-3-(2-methoxy-5-(trifluoromethoxy)phenyl)-imidazol[1,2-b]pyridazin-6-amine]	5.3 µM	10.6 µM		
COc1ccc(OC(F)(F)F)cc1-c1cnc2ccc(NCC3CCN(C(C)C)CC3)nn12 [Compound 7-48, N-((1-isopropylpiperidin-4-yl)methyl)-3-(2-methoxy-5-(trifluoromethoxy)phenyl)-imidazo[1,2-b]pyridazin-6-amine]	5.7 µM	17.7 µM		
Cc1ccc(S(=O)(=O)Nc2ccc(Nc3ccn4ncc(-c5cccc(N)c5)c4n3)cc2)cc1 [Compound 3-9]				IC50 (K562 Cells; [6]): 20.6 µM; IC50 (PC-3 Cells; [7]): 12 µM

Now from value to molecule, other results behind:

IC50 (K562 Cells; [3])	IC50 (PC-3 Cells; [4])	IC50 (Pim-1 kinase; [9])	SMILES	other results
		0.01 to 0.1 µM	FC(F)(F)Oc1cccc(-c2cnc3ccc(NCC4CCOCC4)nn23)c1 [Compound 8-19, N-((tetrahydro-2H-pyran-4-yl)methyl)-3-(3-(trifluoromethoxy)phenyl)imidazo[1,2-b]pyridazin-6-amine]	
		0.01 to 0.1 µM	O=C(CN1CCOCC1)N1CCC(CNc2ccc3ncc(-c4cccc(OC(F)(F)F)c4)n3n2)CC1 [Compound 8-21, 2-Morpholino-1-(4-(((3-(3-(trifluoromethoxy)phenyl)imidazo[1,2-b]pyridazin-6-yl)amino)methyl)piperidin-1-yl)ethanone]	
		0.01 to 0.1 µM	CC(C)(O)CCNc1ccc2ncc(-c3cccc(OC(F)(F)F)c3)n2n1 [Compound 8-3, 2-Methyl-4-((3-(3-(trifluoromethoxy)phenyl)imidazo[1,2-b]pyridazin-6-yl)amino)butan-2-ol]	
		1 to 5 µM	O=S1(=O)CCN(c2ccc3ncc(-c4cccc(OC(F)(F)F)c4)n3n2)CC1 [Compound 8-15, 4-(3-(3-(Trifluoromethoxy)phenyl)imidazo[1,2-b]pyridazin-6-yl)thiomorpholine 1,1-dioxide]	
		0.1 to 1 µM	O=S1(=O)CCC(CNc2ccc3ncc(-c4cccc(OC(F)(F)F)c4)n3n2)CC1 [Compound 8-13, 4-(((3-(3-(Trifluoromethoxy)phenyl)imidazo[1,2-b]pyridazin-6-yl)amino)methyl)tetrahydro-2H-thiopyran 1,1-dioxide]	
		0.01 to 0.1 µM	CN(C)CC(=O)N1CCC(CNc2ccc3ncc(-c4cccc(OC(F)(F)F)c4)n3n2)CC1 [Compound 8-45, 2-(dimethylamino)-1-(4-(((3-(3-(trifluoromethoxy)phenyl)imidazo[1,2-b]pyridazin-6-yl)amino)methyl)piperidin-1-yl)ethanone]	
		1 to 5 µM	COCCOc1ccc2ncc(-c3cccc(OC(F)(F)F)c3)n2n1 [Compound 8-42, 6-(2-Methoxyethoxy)-3-(3-(trifluoromethoxy)phenyl)imidazo[1,2-b]pyridazine]	
		0.01 to 0.1 µM	C[C@]1(O)CC[C@H](Nc2ccn3ncc(-c4cccc(C(F)(F)F)c4)c3n2)CC1 [Compound 8-55, 1-Methyl-4-((3-(3-(trifluoromethyl)phenyl)pyrazolo[1,5-a]pyrimidin-5-yl)amino)-trans-cyclohexanol]	
		0.01 to 0.1 µM	CC(C)(O)C(=O)N1CCC(CNc2ccc3ncc(-c4cccc(OC(F)(F)F)c4)n3n2)CC1 [Compound 8-20, 2-Hydroxy-2-methyl-1-(4-(((3-(3-(trifluoromethoxy)phenyl)imidazo[1,2-b]pyridazin-6-yl)amino)methyl)piperidin-1-yl)propan-1-one]	
		< 0.01 µM	CC(C)(O)[C@H]1CC[C@H](Nc2ccc3ncc(-c4cccc(Cl)c4)n3n2)CC1 [Compound 8-37]	
		0.01 to 0.1 µM	CO[C@H]1CC[C@H](Nc2ccc3ncc(-c4cccc(Cl)c4)n3n2)CC1 [Compound 8-38, 3-(3-Chlorophenyl)-N-(4-trans-methoxycyclohexyl)imidazo[1,2-b]pyridazin-6-amine]	
